Experimental data taken from patent US8084466B2, “Bicyclic heteroaryl-substituted imidazoles as modulators of the histamine H4 receptor” (Janssen Pharmaceutica NV, priority 2007, dated 2011).

Biological target: T1, human histamine H4 receptor (Homo sapiens, UniProt Q9H3N8)
T1 construct: expressed in transfected cells; host or cells: SK-N-MC cells or COS7 cells, transient transfection with pH4R; cell membranes
Assay: Binding Assay on Recombinant Human Histamine H4 Receptor
Conditions: competition binding with 3H-histamine (5 nM; KD 5 nM), membranes of SK-N-MC or COS7 cells expressing human H4 receptor; average of results; > = highest value tested
In short: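 Membranes from SK-N-MC or COS7 cells transiently transfected with H4R incubated 45 min at room temperature with ³H-histamine; nonspecific binding defined with 10,000 nM histamine. Filtration and scintillation counting. Ki from competition with 5 nM ³H-histamine, using a KD of 5 nM.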

Row | SMILES | Ki [nM]
1 | Fc1cc2nc(-c3cccc4c3c(Cl)cn4CCCCC3CCNCC3)[nH]c2cc1F [Example 131, 2-[3-Chloro-1-(4-piperidin-4-yl-butyl)-1H-indol-4-yl]-5,6-difluoro-1H-benzoimidazole] | 3330
2 | Fc1ccc2[nH]c(-c3cccc4c3c(Cl)cn4CCCCC3CCNCC3)nc2c1F [Example 132, 2-[3-Chloro-1-(4-piperidin-4-yl-butyl)-1H-indol-4-yl]-4,5-difluoro-1H-benzoimidazole] | 3330
3 | Cc1c(F)ccc2[nH]c(-c3cccc4c3c(Cl)cn4CCCCC3CCNCC3)nc12 [Example 133, 2-[3-Chloro-1-(4-piperidin-4-yl-butyl)-1H-indol-4-yl]-5-fluoro-4-methyl-1H-benzoimidazole] | > 10000
4 | Cc1nc2ccc3nc(-c4cccc5c4c(Cl)cn5CCCCC4CCNCC4)[nH]c3c2s1 [Example 134, 7-[3-Chloro-1-(4-piperidin-4-yl-butyl)-1H-indol-4-yl]-2-methyl-8H-imidazo[4′,5′:3,4]benzo[1,2-d]thiazole] | > 10000
5 | COC(=O)c1ccc2nc(-c3cccc4c3c(Cl)cn4CCCCC3CCNCC3)[nH]c2c1 [Example 135, 2-[3-Chloro-1-(4-piperidin-4-yl-butyl)-1H-indol-4-yl]-3H-benzoimidazole-5-carboxylic acid methyl ester] | > 10000
6 | Cc1cc(C)c2nc(-c3cccc4c3ccn4CCCCC3CCNCC3)[nH]c2c1 [Example 139, 4,6-Dimethyl-2-[1-(4-piperidin-4-yl-butyl)-1H-indol-4-yl]-1H-benzoimidazole] | 2640
7 | Clc1ccc2nc(-c3cccc4c3ccn4CCCCC3CCNCC3)[nH]c2c1 [Example 140, 6-Chloro-2-[1-(4-piperidin-4-yl-butyl)-1H-indol-4-yl]-1H-benzoimidazole] | 3330

Results, then the compound that gave them:

Row | Ki [nM] | SMILES
8 | 941 | Cc1nc2ccc3nc(-c4cccc5c4c(Cl)cn5CCCCC4CCN(C)CC4)[nH]c3c2s1 [Example 136, 7-{3-Chloro-1-[4-(1-methyl-piperidin-4-yl)-butyl]-1H-indol-4-yl}-2-methyl-8H-imidazo[4′,5′:3,4]benzo[1,2-d]thiazole]
9 | 2880 | COC(=O)c1ccc2nc(-c3cccc4c3c(Cl)cn4CCCCC3CCN(C)CC3)[nH]c2c1 [Example 137, 2-{3-Chloro-1-[4-(1-methyl-piperidin-4-yl)-butyl]-1H-indol-4-yl}-3H-benzoimidazole-5-carboxylic acid methyl ester]
10 | 429 | Cc1ccc2[nH]c(-c3ccc4c(ncn4CCCC4CCNCC4)c3C)nc2c1C [Example 138, 4,5,4′-Trimethyl-1′-(3-piperidin-4-yl-propyl)-1H,1′H-[2,5′]bibenzoimidazolyl]
11 | 2170 | FC(F)(F)c1ccc2nc(-c3cccc4c3ccn4CCCCC3CCNCC3)[nH]c2c1 [Example 141, 2-[1-(4-Piperidin-4-yl-butyl)-1H-indol-4-yl]-6-trifluoromethyl-1H-benzoimidazole]
12 | 7 | Cc1nc(-c2ccc3c(ncn3CCCC3CCN(C)CC3)c2C)[nH]c1-c1ccc(C(F)(F)F)cc1 [Example 142, 4-Methyl-1-[3-(1-methyl-piperidin-4-yl)-propyl]-5-[4-methyl-5-(4-trifluoromethyl-phenyl)-1H-imidazol-2-yl]-1H-benzoimidazole]
13 | 1 | COc1ccc(-c2[nH]c(-c3ccc4c(ncn4CCCC4CCN(C)CC4)c3C)nc2C)cc1 [Example 143, 5-[5-(4-Methoxy-phenyl)-4-methyl-1H-imidazol-2-yl]-4-methyl-1-[3-(1-methyl-piperidin-4-yl)-propyl]-1H-benzoimidazole]
